Results published in patent US10770169B2, “Method of providing a treatment to a subject based on a dynamic pathway map” (THE REGENTS OF THE UNIVERSITY OF CALIFORNIA, priority 2010, dated 2020).

Test system: panel of 55 breast cancer cell lines
Experiment: Cell growth inhibition assay (Cell Titer Glo, 72 h, 9 doses; GI50, TGI, LC50)
Format: cell-based, human
Conditions: value is the negative log10 of mol/L

O=C1NC(=O)/C(=C/c2ccc(-c3ccc(F)cc3O)o2)S1 [AS-252424]
GI50 (AU565 cell line, censored GI50 values): 4.87
GI50 (BT20 cell line, censored GI50 values): 4.65
GI50 (BT474 cell line, censored GI50 values): 5.36
GI50 (BT483 cell line, censored GI50 values): 5.37
GI50 (HCC1187 cell line, censored GI50 values): 5.78
GI50 (HCC1419 cell line, censored GI50 values): 4.69
GI50 (HCC1428 cell line, censored GI50 values): 5.31
GI50 (HCC1500 cell line, censored GI50 values): 5.24
GI50 (HCC1806 cell line, censored GI50 values): 5.15
GI50 (HCC1954 cell line, censored GI50 values): 5.46
GI50 (HCC2185 cell line, censored GI50 values): 4.46
GI50 (MCF7 cell line, censored GI50 values): 4.80
GI50 (MDAMB175VII cell line, censored GI50 values): 4.61
GI50 (MDAMB361 cell line, censored GI50 values): 4.71
GI50 (MDAMB436 cell line, censored GI50 values): 4.74
GI50 (MDAMB453 cell line, censored GI50 values): 4.69
GI50 (SKBR3 cell line, censored GI50 values): 4.40
GI50 (SUM52PE cell line, censored GI50 values): 4.44
GI50 (SUM149PT cell line, censored GI50 values): 4.66
GI50 (SUM185PE cell line, censored GI50 values): 5.27
GI50 (SUM225CWN cell line, censored GI50 values): 5.02
GI50 (SUM1315MO2 cell line, censored GI50 values): 4.75
GI50 (T47D cell line, censored GI50 values): 5.25
GI50 (UACC812 cell line, censored GI50 values): 4.88
GI50 (ZR75B cell line, censored GI50 values): 4.65
GI50 (ZR751 cell line, censored GI50 values): 5.20
GI50 (cell line AU565): 4.87
GI50 (cell line BT20): 4.65
GI50 (cell line BT474): 5.36
GI50 (cell line BT483): 5.37
GI50 (cell line CAMA1): 4.18
GI50 (cell line HCC70): 4.67
GI50 (cell line HCC1187): 5.78
GI50 (cell line HCC1419): 4.69
GI50 (cell line HCC1428): 5.31
GI50 (cell line HCC1500): 5.24
GI50 (cell line HCC1806): 5.15
GI50 (cell line HCC1937): 4.18
GI50 (cell line HCC1954): 5.46
GI50 (cell line HCC2185): 4.46
GI50 (cell line HCC3153): 4.48
GI50 (cell line LY2): 4.51
GI50 (cell line MCF7): 4.80
GI50 (cell line MDAMB134V): 4.30
GI50 (cell line MDAMB175V): 4.61
GI50 (cell line MDAMB361): 4.71
GI50 (cell line MDAMB436): 4.74
GI50 (cell line MDAMB453): 4.69
GI50 (cell line MDAMB468): 4.18
GI50 (cell line SKBR3): 4.40
GI50 (cell line SUM52PE): 4.44
GI50 (cell line SUM149PT): 4.66
GI50 (cell line SUM185PE): 5.27
GI50 (cell line SUM225CWN): 5.02
GI50 (cell line SUM1315MO): 4.75
GI50 (cell line T47D): 5.25
GI50 (cell line UACC812): 4.88
GI50 (cell line ZR75B): 4.65
GI50 (cell line ZR751): 5.20
